Test [1] relates to co-culture de cellules endothéliales humaines et de fibroblastes humains. Put plainly: in vitro angiogenesis model: co-culture, tubule length quantified by image analysis after 12 days. The test is classed as cell-based. Conditions: 12 days of culture, untreated control 4150. From the text: Par ailleurs, la composante vasculaire jouant un rôle fondamental dans la croissance du follicule pileux, l'influence des principes actifs précédemment décrits sur ce paramètre a été évaluée sur un modèle d'angiogénèse in vitro.
Le modèle repose sur une co-culture de cellules endothéliales humaines et de fibroblastes humains (kit angiogénèse Bioprédic International), qui est réalisée en présence ou pas des actifs à tester.
Les cellules endothéliales migrent à travers la matrice pour former des structures tubulaires, qui sont quantifiées au bout de 12 jours de culture. La quantification de la longueur des capillaires est réalisée par analyse d'image.

Test [2] has as its system cellules de la papille dermique du follicule pileux. In words: cell metabolism of dermal papilla cells in monolayer culture. Type of test: cell-based. Conditions: for augmentation du métabolisme cellulaire: culture mono-couche, concentrations not given. From the text: L'intérêt de l'association de ces deux actifs a été confirmé sur d'autres modèles cellulaires, notamment sur le métabolisme des cellules de la papille dermique du follicule pileux en culture mono-couche, où l'association GP4G + nicotinate de tocophérol a montré une augmentation de + 26,2 % du métabolisme cellulaire, supérieure à celle des actifs testés seuls (12,6 % et 18,3 % respectivement).

From patent EP1336402B1, “Association of diguanosine tetraphosphate and nicotinic derivatives used for the treatment of capillary disorders, in particular the treatment of hair loss” (Pierre Fabre Dermo-Cosmetique, priority 2002, dated 2003) come the findings set out here.

As to `Nc1cc(N2CCCCC2)nc(N)[n+]1[O-]` [Minoxidil, reference compound], the “LONGUEUR DES TUBULES PAR CHAMP DE COMPTAGE Moyenne” value in test [1] (Minoxidil 25 µg/ml) is on record as 7662.

On to `Cc1c(C)c2c(c(C)c1OC(=O)c1cccnc1)CCC(C)(CCCC(C)CCCC(C)CCCC(C)C)O2` (stereo not drawn) [Nicotinate de tocophérol, Alpha Tocophéryl Nicotinate], for which the “LONGUEUR DES TUBULES PAR CHAMP DE COMPTAGE Moyenne” value in test [1] (1 µg/ml) was found to be 4015; in test [1] (10 µg/ml) it was 4634; in test [1] (20 µg/ml), 5363. For the same compound, the “augmentation du métabolisme cellulaire” value in test [2] was 18,3%.

As to `Cc1ccc(C(=O)Nc2ccc(S(=O)(=O)O)c3cc(S(=O)(=O)O)cc(S(=O)(=O)O)c23)cc1NC(=O)c1cccc(NC(=O)Nc2cccc(C(=O)Nc3cc(C(=O)Nc4ccc(S(=O)(=O)O)c5cc(S(=O)(=O)O)cc(S(=O)(=O)O)c45)ccc3C)c2)c1` [Suramine, reference compound], the “LONGUEUR DES TUBULES PAR CHAMP DE COMPTAGE Moyenne” value in test [1] (Suramine 20 µM) is given as 3072.

In the case of diguanosine tétraphosphate [GP4G], the “LONGUEUR DES TUBULES PAR CHAMP DE COMPTAGE Moyenne” value in test [1] (GP4G 0.01 %) worked out at 3814; in test [1] (GP4G 0.1 %) it was 4040; in test [1] (GP4G 1.0 %) it was 6803. Moreover, the “augmentation du métabolisme cellulaire” value in test [2] was 12,6%. In addition, in test [2] (en présence de GP4G, result in words), the “métabolisme des cellules de la papille dermique (CPD)” value was “augmentation fonction-dose”.
